# Values joined by “and” are separate entries in the source; they are usually repeats but may differ in a detail not shown here. Equal entries are not always repeated.
# Legend:
# Assay in all cases: biochemical
# Format in all cases: biochemical
# various kinases [1] = target: various kinases (Homo sapiens, UniProt P07949, A883F); details: kinase RET A883F; ZLYTE
# various kinases [2] = target: various kinases (Homo sapiens, UniProt P29376); details: LTK (TYK1)
# various kinases [3] = target: T1, various kinases (Homo sapiens, UniProt Q13188); details: kinase STK3 (MST2); ZLYTE
# T1 sequence (Q13188 1-491): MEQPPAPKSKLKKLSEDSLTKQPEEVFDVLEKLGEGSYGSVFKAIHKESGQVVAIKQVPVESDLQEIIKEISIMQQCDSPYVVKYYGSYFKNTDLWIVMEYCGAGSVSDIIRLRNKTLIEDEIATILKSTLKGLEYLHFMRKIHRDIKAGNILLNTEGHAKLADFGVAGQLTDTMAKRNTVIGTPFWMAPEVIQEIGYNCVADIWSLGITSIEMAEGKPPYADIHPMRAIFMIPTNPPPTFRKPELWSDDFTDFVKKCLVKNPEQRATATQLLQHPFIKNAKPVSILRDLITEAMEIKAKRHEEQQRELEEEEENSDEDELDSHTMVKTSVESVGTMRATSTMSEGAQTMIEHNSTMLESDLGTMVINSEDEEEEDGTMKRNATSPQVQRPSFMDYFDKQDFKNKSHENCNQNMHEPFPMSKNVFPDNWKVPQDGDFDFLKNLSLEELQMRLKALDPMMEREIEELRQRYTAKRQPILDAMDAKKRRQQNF
# various kinases [4] = target: T2, various kinases (Homo sapiens, UniProt Q9UL54); details: kinase TAOK2 (TAO1); ZLYTE
# T2 sequence (Q9UL54 1-1235): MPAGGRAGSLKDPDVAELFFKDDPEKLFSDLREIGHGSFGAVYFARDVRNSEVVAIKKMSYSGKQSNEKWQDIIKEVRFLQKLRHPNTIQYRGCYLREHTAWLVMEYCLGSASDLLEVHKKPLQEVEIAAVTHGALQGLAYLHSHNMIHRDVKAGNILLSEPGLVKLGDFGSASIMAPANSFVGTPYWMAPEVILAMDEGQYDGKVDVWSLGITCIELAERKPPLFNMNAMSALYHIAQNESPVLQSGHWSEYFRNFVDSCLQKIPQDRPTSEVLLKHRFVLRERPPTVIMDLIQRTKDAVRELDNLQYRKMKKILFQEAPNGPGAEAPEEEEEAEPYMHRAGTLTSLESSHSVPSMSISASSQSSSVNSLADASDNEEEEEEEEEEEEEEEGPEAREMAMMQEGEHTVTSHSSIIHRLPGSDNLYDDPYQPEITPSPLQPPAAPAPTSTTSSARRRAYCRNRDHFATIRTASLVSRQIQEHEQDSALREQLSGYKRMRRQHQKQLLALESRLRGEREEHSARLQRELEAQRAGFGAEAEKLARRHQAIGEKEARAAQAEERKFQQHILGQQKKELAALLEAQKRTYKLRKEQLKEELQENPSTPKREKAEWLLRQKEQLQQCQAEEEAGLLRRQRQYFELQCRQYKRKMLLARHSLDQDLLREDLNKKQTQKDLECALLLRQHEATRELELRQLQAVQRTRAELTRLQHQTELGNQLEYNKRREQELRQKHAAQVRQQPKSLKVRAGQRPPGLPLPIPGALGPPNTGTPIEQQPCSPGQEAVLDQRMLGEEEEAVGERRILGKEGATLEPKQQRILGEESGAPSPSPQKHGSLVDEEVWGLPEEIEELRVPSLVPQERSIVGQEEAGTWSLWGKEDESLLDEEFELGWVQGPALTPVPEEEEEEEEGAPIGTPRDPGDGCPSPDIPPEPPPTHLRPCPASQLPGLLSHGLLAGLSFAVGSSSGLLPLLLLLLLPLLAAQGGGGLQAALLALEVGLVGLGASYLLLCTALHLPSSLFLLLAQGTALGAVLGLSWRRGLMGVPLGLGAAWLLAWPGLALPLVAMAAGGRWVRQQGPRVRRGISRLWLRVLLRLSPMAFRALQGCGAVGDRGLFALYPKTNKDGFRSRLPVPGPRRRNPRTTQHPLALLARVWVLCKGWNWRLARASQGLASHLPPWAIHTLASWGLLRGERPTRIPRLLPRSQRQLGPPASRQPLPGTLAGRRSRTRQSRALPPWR
# various kinases [5] = target: various kinases (Homo sapiens, UniProt O14920); details: IKBKB (IKK beta)
# various kinases [6] = target: various kinases (Homo sapiens, UniProt Q56UN5); details: MAP3K19 (YSK4)
# various kinases [7] = target: various kinases (Homo sapiens, UniProt P08581); details: MET (cMet)
# various kinases [8] = target: various kinases (Homo sapiens, UniProt Q9NYY3); details: kinase PLK2; ZLYTE
# Sequence of various kinases (Homo sapiens, UniProt Q9NYY3) (Q9NYY3 whole entry): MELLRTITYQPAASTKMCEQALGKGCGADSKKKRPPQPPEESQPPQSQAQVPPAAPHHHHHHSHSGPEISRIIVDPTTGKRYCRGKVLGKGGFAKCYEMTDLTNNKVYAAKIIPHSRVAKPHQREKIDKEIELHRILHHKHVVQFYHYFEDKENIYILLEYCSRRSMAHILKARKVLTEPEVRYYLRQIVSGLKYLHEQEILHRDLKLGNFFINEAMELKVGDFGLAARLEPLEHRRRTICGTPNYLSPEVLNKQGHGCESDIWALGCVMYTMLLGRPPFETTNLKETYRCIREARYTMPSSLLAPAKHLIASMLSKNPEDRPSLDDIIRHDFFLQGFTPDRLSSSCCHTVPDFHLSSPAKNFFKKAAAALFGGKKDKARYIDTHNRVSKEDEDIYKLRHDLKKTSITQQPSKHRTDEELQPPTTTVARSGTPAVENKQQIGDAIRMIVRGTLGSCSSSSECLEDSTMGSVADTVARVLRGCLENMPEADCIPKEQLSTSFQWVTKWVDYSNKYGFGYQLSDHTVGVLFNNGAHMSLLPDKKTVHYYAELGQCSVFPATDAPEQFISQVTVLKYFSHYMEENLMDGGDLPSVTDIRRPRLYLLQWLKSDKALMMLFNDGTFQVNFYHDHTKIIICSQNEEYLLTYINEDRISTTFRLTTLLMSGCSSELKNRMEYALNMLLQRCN
# various kinases [9] = target: various kinases (Homo sapiens, UniProt P34947); details: GRK5
# various kinases [10] = target: various kinases (Homo sapiens, UniProt Q8IU85); details: CAMK1D (CaMKI delta)
# Sequence of various kinases (Homo sapiens, UniProt Q8IU85) (Q8IU85 whole entry): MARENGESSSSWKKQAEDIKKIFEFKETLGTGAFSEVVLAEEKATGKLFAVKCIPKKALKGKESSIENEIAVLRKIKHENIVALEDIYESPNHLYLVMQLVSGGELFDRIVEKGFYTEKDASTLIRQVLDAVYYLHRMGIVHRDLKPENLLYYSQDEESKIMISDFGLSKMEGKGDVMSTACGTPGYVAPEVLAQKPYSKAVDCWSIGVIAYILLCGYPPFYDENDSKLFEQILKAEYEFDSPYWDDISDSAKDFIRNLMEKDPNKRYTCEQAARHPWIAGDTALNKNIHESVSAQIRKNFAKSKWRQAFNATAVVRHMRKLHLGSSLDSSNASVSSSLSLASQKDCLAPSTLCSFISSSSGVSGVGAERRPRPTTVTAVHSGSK
# various kinases [11] = target: various kinases (Homo sapiens, UniProt P15056); details: BRAF
# Sequence of various kinases (Homo sapiens, UniProt P15056) (P15056 whole entry): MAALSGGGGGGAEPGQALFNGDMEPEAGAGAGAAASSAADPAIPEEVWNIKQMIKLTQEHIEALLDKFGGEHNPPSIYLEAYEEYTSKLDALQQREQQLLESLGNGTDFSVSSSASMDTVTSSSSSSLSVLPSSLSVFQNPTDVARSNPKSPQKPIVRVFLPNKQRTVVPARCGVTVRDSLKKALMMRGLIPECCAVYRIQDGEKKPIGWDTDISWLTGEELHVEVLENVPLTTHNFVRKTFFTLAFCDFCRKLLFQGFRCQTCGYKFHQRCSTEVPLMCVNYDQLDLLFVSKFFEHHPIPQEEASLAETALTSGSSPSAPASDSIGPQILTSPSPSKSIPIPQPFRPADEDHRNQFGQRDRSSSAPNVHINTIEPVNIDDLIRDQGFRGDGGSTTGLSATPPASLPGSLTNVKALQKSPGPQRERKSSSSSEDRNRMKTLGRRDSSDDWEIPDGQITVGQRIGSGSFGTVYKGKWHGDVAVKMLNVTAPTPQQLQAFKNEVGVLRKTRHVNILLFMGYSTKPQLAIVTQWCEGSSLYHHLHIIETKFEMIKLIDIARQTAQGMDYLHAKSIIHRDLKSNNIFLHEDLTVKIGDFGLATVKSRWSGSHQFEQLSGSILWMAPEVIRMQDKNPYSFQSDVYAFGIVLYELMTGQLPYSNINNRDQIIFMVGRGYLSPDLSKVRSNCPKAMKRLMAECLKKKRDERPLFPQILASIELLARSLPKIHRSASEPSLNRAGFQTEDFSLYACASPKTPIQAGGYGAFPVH
# various kinases [12] = target: various kinases (Homo sapiens, UniProt P22607); details: FGFR3
# various kinases [13] = target: various kinases (Homo sapiens, UniProt Q13464); details: kinase ROCK1; ZLYTE
# Sequence of various kinases (Homo sapiens, UniProt Q13464) (Q13464 whole entry): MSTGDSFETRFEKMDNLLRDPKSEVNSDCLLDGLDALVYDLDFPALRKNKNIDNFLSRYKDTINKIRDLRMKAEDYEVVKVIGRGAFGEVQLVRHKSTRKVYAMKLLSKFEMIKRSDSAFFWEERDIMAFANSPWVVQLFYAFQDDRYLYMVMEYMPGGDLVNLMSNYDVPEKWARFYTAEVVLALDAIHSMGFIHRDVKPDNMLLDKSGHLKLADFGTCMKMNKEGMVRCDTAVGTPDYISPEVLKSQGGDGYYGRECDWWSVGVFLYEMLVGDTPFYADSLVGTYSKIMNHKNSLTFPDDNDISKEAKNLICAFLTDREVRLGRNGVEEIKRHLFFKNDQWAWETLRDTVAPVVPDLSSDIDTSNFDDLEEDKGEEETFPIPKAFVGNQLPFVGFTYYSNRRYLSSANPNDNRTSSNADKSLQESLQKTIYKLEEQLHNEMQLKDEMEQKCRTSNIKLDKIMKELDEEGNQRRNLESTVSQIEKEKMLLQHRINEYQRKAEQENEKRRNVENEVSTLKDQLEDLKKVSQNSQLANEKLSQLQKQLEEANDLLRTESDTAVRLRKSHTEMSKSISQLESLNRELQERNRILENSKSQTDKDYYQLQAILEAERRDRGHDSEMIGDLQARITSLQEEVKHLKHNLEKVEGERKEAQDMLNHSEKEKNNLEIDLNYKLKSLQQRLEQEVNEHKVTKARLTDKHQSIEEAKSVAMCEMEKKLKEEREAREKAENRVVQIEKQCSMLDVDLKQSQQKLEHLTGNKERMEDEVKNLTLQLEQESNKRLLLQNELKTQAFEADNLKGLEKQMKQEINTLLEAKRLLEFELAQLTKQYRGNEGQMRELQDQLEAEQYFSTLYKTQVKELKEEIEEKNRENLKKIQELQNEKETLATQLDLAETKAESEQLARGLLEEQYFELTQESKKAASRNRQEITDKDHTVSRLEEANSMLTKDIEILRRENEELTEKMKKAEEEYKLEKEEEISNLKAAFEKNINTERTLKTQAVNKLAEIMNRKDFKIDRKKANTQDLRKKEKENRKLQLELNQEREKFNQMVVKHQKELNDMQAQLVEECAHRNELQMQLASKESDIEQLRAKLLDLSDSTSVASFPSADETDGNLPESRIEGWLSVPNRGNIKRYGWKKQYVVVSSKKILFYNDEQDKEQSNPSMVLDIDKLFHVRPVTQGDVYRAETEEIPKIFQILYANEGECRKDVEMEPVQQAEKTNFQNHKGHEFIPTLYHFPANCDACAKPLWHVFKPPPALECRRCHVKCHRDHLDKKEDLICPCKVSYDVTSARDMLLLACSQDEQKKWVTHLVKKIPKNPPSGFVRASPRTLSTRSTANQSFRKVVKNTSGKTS
# various kinases [14] = target: various kinases (Homo sapiens, UniProt P48730); details: CSNK1D (CK1 delta)
# various kinases [15] = target: various kinases (Homo sapiens, UniProt Q13882); details: kinase PTK6 (Brk); ZLYTE
# Sequence of various kinases (Homo sapiens, UniProt Q13882) (Q13882 whole entry): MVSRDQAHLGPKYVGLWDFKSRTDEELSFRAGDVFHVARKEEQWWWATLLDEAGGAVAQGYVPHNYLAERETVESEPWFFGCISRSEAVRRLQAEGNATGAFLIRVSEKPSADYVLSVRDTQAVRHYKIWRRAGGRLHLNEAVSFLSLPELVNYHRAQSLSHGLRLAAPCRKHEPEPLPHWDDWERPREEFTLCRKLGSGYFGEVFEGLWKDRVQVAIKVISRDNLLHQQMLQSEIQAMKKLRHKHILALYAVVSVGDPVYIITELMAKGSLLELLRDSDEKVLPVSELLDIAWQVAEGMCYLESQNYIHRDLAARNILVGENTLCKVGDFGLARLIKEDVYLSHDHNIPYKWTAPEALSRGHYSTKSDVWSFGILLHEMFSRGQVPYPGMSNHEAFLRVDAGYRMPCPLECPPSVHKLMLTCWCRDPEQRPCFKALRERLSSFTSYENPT
# Sequence of various kinases (Homo sapiens, UniProt P07949, A883F) (P07949 29-1114 A883F): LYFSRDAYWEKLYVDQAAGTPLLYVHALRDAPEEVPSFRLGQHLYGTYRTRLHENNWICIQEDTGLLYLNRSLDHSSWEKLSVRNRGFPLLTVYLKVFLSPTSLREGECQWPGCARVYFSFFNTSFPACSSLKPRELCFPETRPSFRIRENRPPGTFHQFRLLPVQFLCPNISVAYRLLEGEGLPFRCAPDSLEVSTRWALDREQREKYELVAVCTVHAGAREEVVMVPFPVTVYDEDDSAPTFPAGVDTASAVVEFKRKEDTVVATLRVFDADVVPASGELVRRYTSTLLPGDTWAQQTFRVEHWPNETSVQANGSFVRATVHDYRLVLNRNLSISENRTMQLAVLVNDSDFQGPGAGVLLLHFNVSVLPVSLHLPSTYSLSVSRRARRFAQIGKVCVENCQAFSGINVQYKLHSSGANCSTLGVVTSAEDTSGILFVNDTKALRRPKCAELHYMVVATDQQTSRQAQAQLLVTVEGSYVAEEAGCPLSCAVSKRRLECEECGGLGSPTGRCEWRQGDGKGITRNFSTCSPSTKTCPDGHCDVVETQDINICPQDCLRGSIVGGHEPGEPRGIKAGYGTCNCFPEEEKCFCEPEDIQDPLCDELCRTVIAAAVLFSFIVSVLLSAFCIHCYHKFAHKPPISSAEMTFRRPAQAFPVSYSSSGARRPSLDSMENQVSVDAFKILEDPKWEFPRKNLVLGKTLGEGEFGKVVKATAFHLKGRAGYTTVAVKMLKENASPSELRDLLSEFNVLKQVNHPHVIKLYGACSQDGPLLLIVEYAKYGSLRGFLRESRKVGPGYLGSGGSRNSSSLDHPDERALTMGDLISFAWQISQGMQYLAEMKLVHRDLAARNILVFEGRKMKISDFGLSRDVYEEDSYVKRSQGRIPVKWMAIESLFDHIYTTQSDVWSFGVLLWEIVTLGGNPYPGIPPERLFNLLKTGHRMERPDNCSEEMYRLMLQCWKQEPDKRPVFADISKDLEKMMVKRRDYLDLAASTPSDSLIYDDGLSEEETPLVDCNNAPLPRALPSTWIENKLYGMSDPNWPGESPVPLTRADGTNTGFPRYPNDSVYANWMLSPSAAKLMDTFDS
smiles,measurement,setting,value
COc1ccc2c(c1)[C@]1(C[C@H]1c1ccc3c(/C=C/c4ccc(CN5C[C@@H](C)O[C@@H](C)C5)cc4)n[nH]c3c1)C(=O)N2 [CFI-400945],% Inhibition Average,various kinases [1],7%
same,% Inhibition Duplicate #1,various kinases [1],9%
same,% Inhibition Duplicate #2,various kinases [1],4%
same,% Inhibition,various kinases [2],68%
same,% Inhibition Average,various kinases [3],13%
same,% Inhibition Duplicate #1,various kinases [3],15%
same,% Inhibition Duplicate #2,various kinases [3],12%
same,% Inhibition Average,various kinases [4],4%
same,% Inhibition Duplicate #1,various kinases [4],3%
same,% Inhibition Duplicate #2,various kinases [4],5%
same,% Inhibition,various kinases [5],5% and 4%
same,% Inhibition,various kinases [6],7% and 4%
same,% Inhibition,various kinases [7],16% and 14%
same,% Inhibition Average,various kinases [8],4%
same,% Inhibition Duplicate #1,various kinases [8],4%
same,% Inhibition Duplicate #2,various kinases [8],4%
same,% Inhibition,various kinases [9],5% and 3%
same,% Inhibition,various kinases [10],-5% and 0%
same,% Inhibition,various kinases [11],-1% and 2%
same,% Inhibition,various kinases [12],11% and 14%
same,% Inhibition Average,various kinases [13],0%
same,% Inhibition Duplicate #1,various kinases [13],0%
same,% Inhibition Duplicate #2,various kinases [13],0%
same,% Inhibition,various kinases [14],-2% and 3%
same,% Inhibition Average,various kinases [15],4%
same,% Inhibition Duplicate #1,various kinases [15],5%
same,% Inhibition Duplicate #2,various kinases [15],3%
